Data published in US20230348459A1, “PYRROLIDINE COMPOUND AND USE THEREOF” (SIMCERE PHARMACEUTICAL CO., LTD., priority 2020, published 2023).

Legend:
[1] = biological target: estrogen receptors in MCF7 cells (Homo sapiens (Human), UniProt P03372); experiment: Degradation of estrogen receptors in MCF7 cells (in-cell western); assay type: cell-based; settings: for DC50: 24 hours treatment, read-out: ER level DC50; for Dmax: 24 hours, 0.1 µM fulvestrant = 100% degradation control, read-out: Maximum degradation rate
estrogen receptors in MCF7 cells, sequence (P03372 whole entry): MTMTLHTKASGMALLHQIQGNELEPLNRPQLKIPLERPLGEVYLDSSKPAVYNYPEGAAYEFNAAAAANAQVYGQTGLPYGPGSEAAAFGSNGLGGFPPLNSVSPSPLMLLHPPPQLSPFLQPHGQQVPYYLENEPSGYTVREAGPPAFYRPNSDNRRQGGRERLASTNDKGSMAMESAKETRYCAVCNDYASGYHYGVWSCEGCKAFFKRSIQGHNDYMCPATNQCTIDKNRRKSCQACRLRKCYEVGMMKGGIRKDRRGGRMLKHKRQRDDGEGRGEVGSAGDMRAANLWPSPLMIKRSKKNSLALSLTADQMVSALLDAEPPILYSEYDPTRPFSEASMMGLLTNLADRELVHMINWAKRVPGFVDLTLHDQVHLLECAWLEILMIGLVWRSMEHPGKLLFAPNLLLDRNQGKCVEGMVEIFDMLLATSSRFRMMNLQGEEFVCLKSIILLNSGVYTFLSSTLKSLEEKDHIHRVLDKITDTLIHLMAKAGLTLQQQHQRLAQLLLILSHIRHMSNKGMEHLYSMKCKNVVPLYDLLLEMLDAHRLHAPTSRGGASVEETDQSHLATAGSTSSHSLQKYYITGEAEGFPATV
Description: The purpose of the experiment is to determine the degradation activity of the compounds of the present invention on endogenously expressed estrogen receptors in MCF7 cells, and to evaluate the activity of the compounds according to DC50 and maximum degradation efficiency.
MCF7 cells (ATCC, HTB-22) were cultured in DMEM (Gibco, 11995-065) complete medium containing 10% fetal bovine serum. On the first day of the experiment, MCF7 cells were inoculated in a 384-well plate at a density of 3000 cells/well using the complete medium, and cultured in a 37° C., 5% CO2 cell incubator. The compounds to be tested were dissolved in DMSO with a stock concentration of 10 mM, the solution was diluted with Echo 550 (Labcyte Inc.) and added to the cell culture plate. Each compound with the starting concentration for treatment of 100 nM was subjected to 3-fold gradient dilution with 9 concentration points. A blank control containing 0.5% DMSO was set, and double replicate wells as controls were set at each concentration point. The culture was cultured in a 37° C., 5% CO2 cell incubator for 24 hours. Paraformaldehyde was added to the cell culture medium in each cell culture well, and the final concentration of paraformaldehyde was about 3.7% to fix the cells. After the mixture was reacted for 30 minutes, the supernatant was discarded, and 50 µL of PBS was added to each well for washing once. The cells were treated with PBS containing 0.5% v/v Tween-20 for 30 minutes, and washed with PBS once. A blocking solution (PBS containing 5% BSA, 0.05% Tween-20) was added, and the mixture was incubated at room temperature for 1 hour. The blocking solution was removed, a mixture solution of primary antibodies (anti-ER mAb, Estrogen Receptor α (D8H8) Rabbit mAb, GST, # 8644S, 1 : 1000 dilution; anti-GAPDH mAb, GAPDH(D4C6R) Mouse mAb, GST, #97166S, 1 : 2000 dilution) was added, and the mixture was incubated at room temperature for 3 hours. The culture was washed with PBST (PBS containing 0.05% Tween-20) 3 times. Secondary antibodies for detection (800CW-goat anti-rabbit IgG, LI-COR, P/N: 926-32211, 1 : 1000 dilution; 680RD-goat anti-mouse IgG, LI-COR, #925-68070, 1 : 1000 dilution) were added, and the mixture was incubated at room temperature and in the dark for 45 minutes. After washing with PBST 3 times, the fluorescence signal of each well was read using Odyssey CLx, and the value of Chanel 800 (ER)/Chanel 680 (GAPDH) was calculated. The wells treated with 0.1 µM fulvestrant were used as the 100% degradation control, and the degradation rate at each concentration point was calculated. The data were analyzed and processed by XlLfit, and the degradation activity DC50 and the maximum degradation rate Imax of each compound were calculated.

[2] = Pharmacokinetic evaluation in mice; assay type: in vivo; settings: CD-1 mice; for bioavailability: female, mouse, plasma, PO 10 mg/kg vs IV 1 mg/kg
Description: Six female CD-1 mice (20-30 g, 4-6 weeks) were randomized into 2 groups, 3 mice/group. Group 1 was given the test compound via tail vein injection at a dose of 1 mg/kg, and the vehicle was 5% DMSO in 10% HP-β-CD in water, and group 2 was given the test compound orally at a dose of 10 mg/kg, and the vehicle was 40% Tetraethylene Glycol (v/v), 7.5% Captisol (w/v) in water. Prior to the experiment, the animals were given food and water as usual. Before administration and 0.083 (only for the vein injection group), 0.25, 0.5, 1, 2, 4, 6, 8 and 24 h after administration, blood was sampled from the veins of the mice in each group. The whole blood sample collected was placed in a K2EDTA anticoagulation tube and centrifuged for 5 min (12,000 rpm, 4° C.) and then the plasma was taken for later detection.
10 µL of the mouse plasma sample was taken and 150 µL of acetonitrile solvent (wherein internal standard compound was contained) was added to precipitate proteins. After the mixture was vortexed for 5 min, centrifugation (14,000 rpm) was performed for 5 min. The supernatant was diluted 2-fold with water containing 0.1% (v/v) FA and injected into the LC-MS/MS system (AB Sciex Triple Quad 6500+) for the quantitative detection. A calibration standard curve was prepared in CD-1 mouse plasma along with quality control samples to determine the plasma concentration. For the 10x diluted samples, 2 µL of the sample was taken and 18 µL of blank plasma was added. After the mixture was vortexed for 0.5 min, 300 µL of acetonitrile solvent (wherein an internal standard compound was contained) was added to precipitate proteins. The other processing steps were identical to those for the samples not diluted.

Structure (SMILES)	DC50 [1] [nM]	Dmax [1] [%]	Drug exposure ([2]; IV 1 mg/kg) [ng·h/mL]	Maximum drug concentration ([2]; IV 1 mg/kg) [ng/mL]	Time of half drug elimination ([2]; IV 1 mg/kg) [h]	Drug exposure ([2]; PO 10 mg/kg) [ng·h/mL]	Maximum drug concentration ([2]; PO 10 mg/kg) [ng/mL]	Time of half drug elimination ([2]; PO 10 mg/kg) [h]	Time to peak drug concentration ([2]; PO 10 mg/kg) [h]	bioavailability [2] [%]
C[C@@H]1Cc2c([nH]c3ccccc23)C(c2c(F)cc(N[C@H]3CCN(CCCF)C3)cc2F)N1CC(F)(F)F (stereo in doubt) [Example 4, (S)-N-(3,5-difluoro-4-((1S,3R)-3-methyl-2-(2,2,2-trifluoroethyl)-2,3,4,9-tetrahydro-1H-pyridino[3,4-b]indol-1-yl)phenyl)-1-(3-fluoropropyl)pyrrolidin-3-amine]	0.04	99	639	78	21	3853	222	19	5	60
C[C@@H]1Cc2c([nH]c3ccccc23)C(c2c(F)cc(N[C@H]3CCN(CCCF)C3)cc2F)N1CC(F)(F)CO (stereo in doubt) [Example 7, 3-((1S,3R)-1-(2,6-difluoro-4-(((S)-1-(3-fluoropropyl)pyrrolidin-3-yl)amino)phenyl)-3-methyl-3,4-dihydro-1H-pyridino [3,4-b]indole-2(9H)-yl)-2,2-difluoropropane-1-ol]	0.06	–	879	259	5	5447	555	4	1	62
C[C@@H]1Cc2c([nH]c3ccccc23)[C@@H](c2ccc(N[C@H]3CCN(CCCF)C3)cn2)N1CC(F)(F)F [Example 3, N-((S)-1-(3-fluoropropyl)pyrrolidin-3-yl)-6-((1S,3R)-3-methyl-2-(2,2,2-trifluoroethyl)-2,3,4,9-tetrahydro-1H-pyridino[3,4-b]indol-1-yl)pyridine-3-amine]	0.15	104	414	98	13	2804	219	9	3	68
